We go through 14 molecules from publication PMC11345769, “(SiFA)SeFe: A Hydrophilic Silicon-Based Fluoride Acceptor Enabling Versatile Peptidic Radiohybrid Tracers” (Journal of medicinal chemistry, 2024).

Series [1] can be described thus: stability in human serum (radio-RP-HPLC). As to conditions: 37 °C. The format is in vitro ADME. How it is done: Stability studies in human serum were also performed by incubating the ^18F-labeled ligands [^18F][^natGa]Ga-(SiFA)-SeFe-rhTATE1, [^18F][^natGa]Ga-(SiFA)SeFe-rhTATE2, [^18F][^natLu]Lu-(SiFA)SeFe-rhTATE3 and [^18F][^natLu]Lu-(SiFA)BA-rhTATE3 (for 1 h), as well as the ^177Lu-labeled ligands [^177Lu]Lu-(SiFA)SeFe-rhTATE3 and [^177Lu]Lu-(SiFA)BA-rhTATE3 for 1 and 24 h at 37 °C (Figure 3D). Afterward, the samples were analyzed for the intact tracer by radio-RP-HPLC (see SI, Table S4).
5 MBq of the respective ^18F-/^177Lu-labeled compound was added to 200 μL of human serum (from a healthy volunteer) and incubated at 37 °C for 1 h. After the addition of 50 vol % of cold ethanol and 150 vol % of cold MeCN, centrifugation was performed at 13.000 rpm for 20 min. The supernatant was decanted and centrifuged at 13.000 rpm for 10 min in a centrifuge tube with a 0.45 μm cellulose acetate filter. […] of the remaining filtrate was injected into RP-HPLC and the number of intact radioligand was quantified.

Series [2] is described as follows: stability of 18F-labeled model bioconjugates, physiological conditions. Particulars: buffer, pH 7.4. The format is physicochemical. How it is done:
To a solution of 90 μL aqueous K2CO3 buffer (pH 7.4) were added 10 μL of the respective ^18F-labeled (SiFA)SeFe-bioconjugate. The solution was kept at 37 °C and for each time point (0, 30, 60, 90, 120 min) 10 μL were analyzed via Radio-TLC. The half-life was calculated from the ratio between free fluorine-18 and labeled peptide.

Series [3] can be described thus: stability of 18F-labeled model bioconjugates, lutetium labeling conditions. The format is physicochemical. As to conditions: buffer, pH 5.5. How it is done: To a solution of 10 μL aqueous sodium acetate buffer (pH 5.5) and 80 μL 0.04 M HCl were added 10 μL of the respective ^18F-labeled (SiFA)SeFe-bioconjugate. The solution was kept at 90 °C and for each time point (0, 30, 60, 90, 120 min) 10 μL were analyzed via Radio-TLC. The half-life was calculated from the ratio between free fluorine-18 and labeled peptide.

Series [4] can be described thus: stability of 18F-labeled model bioconjugates, reverse isotopic exchange. As to conditions: buffer, pH 6.5. The class given is physicochemical. Here is the method: To 10 μL of the respective ^18F-labeled (SiFA)SeFe-bioconjugate, a solution of 10 μL 10 mM NaF (pH = 6.5) and 80 μL H2O was added. The solution was kept at RT and for each time point (0, 30, 60, 90, 120 min) 10 μL was analyzed via Radio-TLC. The half-life was calculated from the ratio between free fluorine-18 and labeled peptide.

In series [5] the target is T1, human serum albumin (Homo sapiens, UniProt P02768).
T1 construct: purchased Daicel, Tokio, Japan Chiralpak HSA column (50 × 3 mm, 5 μm, H13 h-2433)
The series can be described thus: human serum albumin binding by HPAC. Particulars: non-radiolabeled compounds, n=1. The class given is in vitro ADME. How it is done: High performance affinity chromatography (HPAC) was used to determine representative values for HSA binding of the ligands and their references, since it can influence the distribution and pharmacokinetics of radiopharmaceuticals.[43],[44]
HSA binding studies were performed according to a previously published procedure, using RP-HPLC and HSA which is solid-phase fixed on a Chiralpak HSA column (50 × 3 mm, 5 μm, H13 h-2433, Daicel, Tokio, Japan).[51] A flow rate of 0.5 mL/min at RT was used. A freshly prepared 50 mM aqueous solution of NH4OAc (pH 6.9) was used as mobile phase A, and isopropanol (HPLC grade, VWR, Germany) was used as mobile phase B. A gradient of 100% A (0 to 3 min) followed by 80% A (3 to 40 min) was used for the experiments. Before the analysis of all compounds, the column was calibrated with nine reference substances having HSA binding known from the literature in the range of 13 to 99%.[51],[52] All compounds, were prepared in a 1/1 mixture (v/v) of isopropanol and a 50 mM aqueous solution of NH4OAc (pH 6.9) at a final concentration of 0.5 mg/mL. Nonlinear regression was performed using OriginPro 2016G software (North-ampton, United States).

Where [6] appears, read: physiological conditions, 18F-labeled, Radio-TLC, read-out: Half-life, pH 7.4, 37 °C.
The mark [7] stands for this setting: lutetium labeling conditions, 18F-labeled, Radio-TLC, read-out: Half-life, pH 5.5, 90 °C (converted).
[8] abbreviates: reverse isotopic exchange, 18F-labeled, Radio-TLC, read-out: Half-life, pH 6.5, 1 mM aq. NaF, RT.

T1 sequence (P02768 25-609): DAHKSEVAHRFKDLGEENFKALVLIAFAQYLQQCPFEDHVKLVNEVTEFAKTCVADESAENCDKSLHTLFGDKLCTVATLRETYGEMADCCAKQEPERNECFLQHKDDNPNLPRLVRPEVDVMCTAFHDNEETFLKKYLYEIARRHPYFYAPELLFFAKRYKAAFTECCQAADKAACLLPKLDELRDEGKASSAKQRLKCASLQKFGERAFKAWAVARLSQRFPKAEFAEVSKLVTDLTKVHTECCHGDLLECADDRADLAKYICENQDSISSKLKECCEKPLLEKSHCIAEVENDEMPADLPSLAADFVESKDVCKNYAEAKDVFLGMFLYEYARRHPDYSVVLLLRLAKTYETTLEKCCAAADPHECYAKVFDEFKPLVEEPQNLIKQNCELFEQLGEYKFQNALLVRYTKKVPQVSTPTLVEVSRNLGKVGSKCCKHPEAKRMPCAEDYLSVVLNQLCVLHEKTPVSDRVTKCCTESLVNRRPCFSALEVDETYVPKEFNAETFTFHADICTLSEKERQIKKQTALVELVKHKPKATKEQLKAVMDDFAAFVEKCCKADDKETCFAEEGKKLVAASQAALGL

As for `C[C@@H](O)[C@H](NC(=O)[C@@H]1CSSC[C@H](NC(=O)[C@@H](Cc2ccccc2)NC(=O)COCCOCCNC(=O)[C@@H](CNC(=O)CN2CCN(CC(=O)O)CCN(CC(=O)O)CCN(CC(=O)O)CC2)NC(=O)COCCOCCNC(=O)c2ccc([Si](F)(C(C)(C)C)C(C)(C)C)cc2)C(=O)N[C@@H](Cc2ccc(O)cc2)C(=O)N[C@H](Cc2c[nH]c3ccccc23)C(=O)N[C@@H](CCCCN)C(=O)N[C@@H]([C@@H](C)O)C(=O)N1)C(=O)O` [[177Lu]Lu-(SiFA)BA-rhTATE3, metal not drawn], the “Intact tracer in human serum, 24 h” value in series [1] (n=3) is 60 ± 1.0%. The remaining at 24 h, 25 MBq/mL in series [1] (human, serum, n=3, read-out: Intact tracer in human serum, 24 h) came to 60%.

What is called half-life is how long it takes for the measured level to halve. For the molecule `CC(C)(C)[Si](F)(c1cc(CNC(=O)[C@@H](N)CCC(=O)O)cc(C(=O)NCC(=O)N[C@@H](CCCCN)C(=O)O)c1)C(C)(C)C` [3X1, (3-(((S)-2-amino-4-carboxybutanamido)methyl)-5-(di-tert-butylfluorosilyl)benzoyl)glycyl-L-lysine], the half-life is 57 ± 1.3 min in series [2] (setting [6]), 40 ± 0.6 h in series [3] (setting [7]) and 34 ± 2.1 min in series [4] (setting [8]).

For `C[C@@H](O)[C@H](NC(=O)[C@@H]1CSSC[C@H](NC(=O)[C@@H](Cc2ccccc2)NC(=O)COCCOCCNC(=O)[C@@H](CNC(=O)CN2CCN(CC(=O)O)CCN(CC(=O)O)CCN(CC(=O)O)CC2)NC(=O)COCCOCCNC(=O)c2cc(CN)cc([Si](F)(C(C)(C)C)C(C)(C)C)c2)C(=O)N[C@@H](Cc2ccc(O)cc2)C(=O)N[C@H](Cc2c[nH]c3ccccc23)C(=O)N[C@@H](CCCCN)C(=O)N[C@@H]([C@@H](C)O)C(=O)N1)C(=O)O` [[natLu]Lu-(SiFA)SeFe-rhTATE3, metal not drawn], the “HSA binding (HPAC)” value is 98% in series [5] and 98−99% in series [5] (listed as [^natLu]Lu-(SiFA)SeFe-rhTATE3).

As for `C[C@@H](O)[C@H](NC(=O)[C@@H]1CSSC[C@H](NC(=O)[C@@H](Cc2ccccc2)NC(=O)CN2CCN(CC(=O)O)CCN(CC(=O)NC[C@@H](NC(=O)c3cc(CN)cc([Si](F)(C(C)(C)C)C(C)(C)C)c3)C(=O)O)CCN(CC(=O)O)CC2)C(=O)N[C@@H](Cc2ccc(O)cc2)C(=O)N[C@H](Cc2c[nH]c3ccccc23)C(=O)N[C@@H](CCCCN)C(=O)N[C@@H]([C@@H](C)O)C(=O)N1)C(=O)O` [[natGa]Ga-(SiFA)SeFe-rhTATE1, metal not drawn], the “HSA binding (HPAC)” value in series [5] is listed as 99%; in series [5] (listed as [^natGa]Ga-(SiFA)SeFe-rhTATE1), 98−99%.

For the molecule `CC(C)(C)[Si](F)(c1cc(CN)cc(C(=O)NCC(=O)N[C@@H](Cc2ccc(O)cc2)C(=O)O)c1)C(C)(C)C` [1X3, (3-(aminomethyl)-5-(di-tert-butylfluorosilyl)benzoyl)glycyl-L-tyrosine], the half-life in series [2] was 14 ± 3 min; in series [3] it was 43 ± 2.8 h; in series [4] it was 27 ± 2.2 min.

`CC(C)(C)[Si](F)(c1cc(CNC(=O)[C@@H](N)CCC(=O)O)cc(C(=O)NCC(=O)N[C@@H](Cc2ccc(O)cc2)C(=O)O)c1)C(C)(C)C` [3X3, (S)-4-amino-5-((3-((2-(((S)-1-carboxy-2-(4-hydroxyphenyl)-ethyl)amino)-2-oxoethyl)carbamoyl)-5-(di-tert-butylfluorosilyl)-benzyl)amino)-5-oxopentanoic acid]: the half-life in series [2] (setting [6]) is 29 ± 0.8 min; in series [3] (setting [7]), 42 ± 7.8 h; in series [4] (setting [8]), 57 ± 1.6 min.

Regarding `CC(C)(C)[Si](F)(c1cc(CN)cc(C(=O)NCC(=O)N[C@@H](CC(=O)O)C(=O)O)c1)C(C)(C)C` [1X2, (3-(aminomethyl)-5-(di-tert-butylfluorosilyl)benzoyl)glycyl-L-as-partic acid], the half-life in series [2] was 299 ± 12 min; in series [3], 37 ± 11 h; in series [4], 25 ± 6.1 min.

In the case of `CC(C)(C)[Si](F)(c1cc(CN)cc(C(=O)NCC(=O)N[C@@H](CCCCN)C(=O)O)c1)C(C)(C)C` [1X1, (3-(aminomethyl)-5-(di-tert-butylfluorosilyl)benzoyl)glycyl-L-lysine], the half-life is 27 ± 2.1 min in series [2], 38 ± 0.9 h in series [3] and 10 ± 1.1 min in series [4].

For the molecule `C[C@@H](O)[C@H](NC(=O)[C@@H]1CSSC[C@H](NC(=O)[C@@H](Cc2ccccc2)NC(=O)CN2CCN(CC(=O)O)CCN(CC(=O)NC[C@@H](NC(=O)c3cc(CNC(=O)C[C@@H](N)C(=O)O)cc([Si](F)(C(C)(C)C)C(C)(C)C)c3)C(=O)O)CCN(CC(=O)O)CC2)C(=O)N[C@@H](Cc2ccc(O)cc2)C(=O)N[C@H](Cc2c[nH]c3ccccc23)C(=O)N[C@@H](CCCCN)C(=O)N[C@@H]([C@@H](C)O)C(=O)N1)C(=O)O` [[natGa]Ga-(SiFA)SeFe-rhTATE2, metal not drawn], the results for the “HSA binding (HPAC)” value in series [5] and in series [5] (listed as [^natGa]Ga-(SiFA)SeFe-rhTATE2) were 99% and 98−99%, respectively.

Consider `CC(C)(C)[Si](F)(c1cc(CNC(=O)[C@@H](N)CCCCN)cc(C(=O)NCC(=O)N[C@@H](CCCCN)C(=O)O)c1)C(C)(C)C` [2X1, (3-(di-tert-butylfluorosilyl)-5-(((S)-2,6-diaminohexanamido)-methyl)benzoyl)glycyl-L-lysine], for which the figures for the half-life in series [2] (setting [6]), in series [3] (setting [7]) and in series [4] (setting [8]) were 18 ± 2.1 min, 25 ± 5.5 h and 14 ± 0.8 min, respectively.

For `CC(C)(C)[Si](F)(c1cc(CNC(=O)[C@@H](N)CCCCN)cc(C(=O)NCC(=O)N[C@@H](CC(=O)O)C(=O)O)c1)C(C)(C)C` [2X2, (3-(di-tert-butylfluorosilyl)-5-(((S)-2,6-diaminohexanamido)-methyl)benzoyl)glycyl-L-aspartic acid], the half-life in series [2] (setting [6]) is 43 ± 1.3 min; in series [3] (setting [7]), 49 ± 7.1 h; in series [4] (setting [8]), 29 ± 0.8 min.

As for `CC(=O)N[C@@H]1[C@@H](O)[C@H](O)[C@@H](CO)O[C@H]1NC(=O)C[C@H](NC(=O)CON=CCCC[N+](C)(C)Cc1ccc([Si](F)(C(C)(C)C)C(C)(C)C)cc1)C(=O)N[C@@H](CC(=O)O)C(=O)N[C@@H](CC(=O)O)C(=O)NCCOCCOCC(=O)N[C@H](Cc1ccccc1)C(=O)N[C@H]1CSSC[C@@H](C(=O)N[C@H](C(=O)O)[C@@H](C)O)NC(=O)[C@H]([C@@H](C)O)NC(=O)[C@H](CCCCN)NC(=O)[C@@H](Cc2c[nH]c3ccccc23)NC(=O)[C@H](Cc2ccc(O)cc2)NC1=O` [SiFAlin-TATE, reference compound], the “HSA binding (HPAC)” value in series [5] was 92%.

With `CC(C)(C)[Si](F)(c1cc(CNC(=O)[C@@H](N)CCCCN)cc(C(=O)NCC(=O)N[C@@H](Cc2ccc(O)cc2)C(=O)O)c1)C(C)(C)C` [2X3, (3-(di-tert-butylfluorosilyl)-5-(((S)-2,6-diaminohexanamido)-methyl)benzoyl)glycyl-L-tyrosine], the half-life in series [2] (setting [6]) was 21 ± 6 min; in series [3] (setting [7]) it was 48 ± 13 h; in series [4] (setting [8]), 20 ± 2.9 min.

For `CC(C)(C)[Si](F)(c1cc(CNC(=O)[C@@H](N)CCC(=O)O)cc(C(=O)NCC(=O)N[C@@H](CC(=O)O)C(=O)O)c1)C(C)(C)C` [3X2, (3-(((S)-2-amino-4-carboxybutanamido)methyl)-5-(di-tert-butylfluorosilyl)benzoyl)glycyl-L-aspartic acid], the half-life is 597 ± 43 min in series [2] (setting [6]), 59 ± 5.2 h in series [3] (setting [7]) and 90 ± 3.6 min in series [4] (setting [8]).
